Test results: US6403575B1, “3-Pyridyl enantiomers and their use as analgesics” (Abbott Laboratories, priority 1996, dated 2002)
Structures can show the parent of a compound that is named as a salt. Where two headings read alike, the source gives them in different places.

Key:
[1] = target: T1, neuronal nicotinic acetylcholine receptors (Rattus norvegicus, UniProt P09483+P12390); assay: [3H]-cytisine binding to neuronal nicotinic acetylcholine receptors, whole rat brain membranes
T1 construct: crude synaptic membrane preparations from whole rat brain; from tissue; host or cells: whole rat brain, crude synaptic membranes
T1 sequence (P09483 31-630): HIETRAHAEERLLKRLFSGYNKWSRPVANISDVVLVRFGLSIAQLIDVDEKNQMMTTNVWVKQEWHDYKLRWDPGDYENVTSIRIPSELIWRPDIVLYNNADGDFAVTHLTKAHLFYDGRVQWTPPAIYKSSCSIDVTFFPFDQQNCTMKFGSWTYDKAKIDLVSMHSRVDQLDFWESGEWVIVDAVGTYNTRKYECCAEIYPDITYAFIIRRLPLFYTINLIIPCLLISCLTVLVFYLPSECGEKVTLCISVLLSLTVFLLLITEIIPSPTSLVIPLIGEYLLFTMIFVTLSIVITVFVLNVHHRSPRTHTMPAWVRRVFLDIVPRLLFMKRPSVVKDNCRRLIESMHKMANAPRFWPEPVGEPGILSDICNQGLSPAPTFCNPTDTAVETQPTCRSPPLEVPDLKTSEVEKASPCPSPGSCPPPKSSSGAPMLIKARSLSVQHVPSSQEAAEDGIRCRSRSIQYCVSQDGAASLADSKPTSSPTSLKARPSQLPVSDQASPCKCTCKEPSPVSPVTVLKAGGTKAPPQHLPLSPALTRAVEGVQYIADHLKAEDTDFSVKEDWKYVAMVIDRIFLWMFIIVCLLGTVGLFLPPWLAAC
T1 sequence (P12390 25-500): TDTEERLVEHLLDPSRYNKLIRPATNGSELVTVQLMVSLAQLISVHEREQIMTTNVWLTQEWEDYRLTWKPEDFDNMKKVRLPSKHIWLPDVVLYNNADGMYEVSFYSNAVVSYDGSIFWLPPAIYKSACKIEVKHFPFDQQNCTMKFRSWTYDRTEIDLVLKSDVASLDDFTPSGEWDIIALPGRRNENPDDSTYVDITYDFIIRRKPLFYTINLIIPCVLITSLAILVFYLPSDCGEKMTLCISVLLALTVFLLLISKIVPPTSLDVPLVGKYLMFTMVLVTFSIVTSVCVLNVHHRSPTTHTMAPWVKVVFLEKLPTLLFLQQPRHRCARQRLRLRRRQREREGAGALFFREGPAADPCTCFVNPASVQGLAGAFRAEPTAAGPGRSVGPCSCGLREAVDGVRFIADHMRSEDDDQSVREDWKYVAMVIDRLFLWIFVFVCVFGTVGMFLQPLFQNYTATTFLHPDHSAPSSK
Method: Protocol for Determination of Nicotinic Acetylcholine Channel Receptor Binding Potencies of Ligands
Binding of [^3H]-cytisine ([^3H]-CYT) to neuronal nicotinic acetylcholine receptors was accomplished using crude synaptic membrane preparations from whole rat brain (Pabreza et al., Molecular Pharmacol., 1990, 39:9). Washed membranes were stored at −80° C. prior to use. Frozen aliquots were slowly thawed and resuspended in 20 volumes of buffer (containing: 120 mM NaCl, 5 mM KCl, 2 mM MgCl2, 2 mM CaCl2 and 50 mM Tris-Cl, pH 7.4 @4° C.). After centrifuging at 20,000×g for 15 minutes, the pellets were resuspended in 30 volumes of buffer. Homogenate (containing 125-150 μg protein) was added to triplicate tubes containing concentrations of test compound and [^3H]-CYT (1.25 nM) in a final volume of 500 μL. Samples were incubated for 60 minutes at 4° C., then rapidly filtered through Whatman GF/B filters presoaked in 0.5% polyethyleneimine using 3×4 mL of ice-cold buffer. The filters are counted in 4 mL of Ecolume® (ICN). Nonspecific binding was determined in the presence of 10 μM (−)-nicotine and values were expressed as a percentage of total binding.

mice = assay: Mouse Hot Plate Paradigm; assay type: in vivo; set-up: key to MED Hot plate model (μmol/kg, i.p.): NS = no significant effect observed relative to saline controls at the doses tested; conditions: 30 minutes prior to testing, 55° C.; for minimal effective dose: ip, 0.5 h, i.p., read-out: MED Hot plate model (μmol/kg, i.p.)
[2] = dog, in vivo; for AUD0. / Cmax / Tmax / t½: po; for Cmax / Tmax / t½: 200 nmol/kg
Method: Beagle dogs were fasted overnight prior to dosing but were permitted free access to water. Each of the prodrugs was administered to a group of three animals at a dose of 200 nmol/kg. The formulation was adminstered by oral gavage. The prodrugs were prepared as 200 nmol/ml (1 ml/kg) solutions in normal saline. Blood samples from a jugular vein of each dog prior to dosing and 0.17, 0.33, 0.5, 0.75, 1, 1.5, 2, 3, 4, 6 and 8 hours after drug administration.

[3] = [3H]-cytisine 1.25 nM, whole rat brain membranes, read-out: [3H] CYT Ki

Cc1ccc(OC[C@@H]2CCN2)cn1 [Example 20, 5-((2S)-Azetidinylmethyloxy)-2-methylpyridine dihydrochloride]
Ki [1, 3]: 0.06 nM | minimal effective dose (mice): 0.62 µmol/kg

Cc1ccc(OC[C@H]2CCN2)cn1 [Example 115, 6-Methyl-3-(2-(R)-azetidinylmethoxy)pyridine]
Ki [1, 3]: 0.07 nM

Cc1ncc(OC[C@H]2CCN2)cc1Br [Example 124, 3-(2-(R)-azetidinylmethoxy)-5-bromo-6-methylpyridine tosylate]
Ki [1, 3]: 0.03 nM

Fc1ncc(OC[C@@H]2CCN2)cc1Br [Example 31, 5-((2S)-azetidinylmethoxy)-3-bromo-2-fluoropyridine dibenzoic acid salt]
Ki [1, 3]: 0.03 nM | minimal effective dose (mice): 6.2 µmol/kg

C=Cc1cc(OC[C@H]2CCN2)cnc1F [Example 129, 5-((2R)-Azetidinylmethoxy)-2-fluoro-3-vinylpyridine tosylate]
Ki [1, 3]: 0.09 nM

C=Cc1cncc(OC[C@@H]2CCN2)c1 [Example 22, 5-Vinyl-3-((2S)-Azetidinylmethyloxy)lpyridine dihydrochloride]
Ki [1, 3]: 0.97 nM

CCCc1cncc(OC[C@@H]2CCN2)c1 [Example 24, 5-Propyl-3-((2S)-azetidinylmethyloxy)lpyridine hydrochloride]
Ki [1, 3]: 0.05 nM | minimal effective dose (mice): 62 µmol/kg

CN1CC[C@H]1COc1ccc(C(F)F)nc1 [Example 113, 6-Difluoromethyl-3-((1-methyl-2-(S)-azetidinyl)methoxy)pyridine citrate]
Ki [1, 3]: 0.17 nM

C#Cc1cc(OC[C@@H]2CCN2)cnc1Cl [Example 30, 2-Chloro-3-ethynyl-5-((2S)-azetidinylmethoxy)pyridine hydrochloride]
Ki [1, 3]: 0.04 nM | minimal effective dose (mice): 6.2 µmol/kg

CCOc1cncc(OC[C@@H]2CCN2)c1 [Example 120, 5-Ethoxy-3-(2-(S)-azetidinylmethoxy)pyridine tosylate]
Ki [1, 3]: 0.04 nM

C=CCc1cncc(OC[C@@H]2CCN2)c1 [Example 130, 3-(2-(S)-azetidinylmethoxy)-5-(3-propenyl)pyridine hydrochloride]
Ki [1, 3]: 0.04 nM

Fc1ncc(OCC2CCN2)cc1Cl (stereo not drawn) [Example 33, 5-((29)-azetidinylmethoxy)-3-chloro-2-fluoropyridine tosylate]
Ki [1, 3]: 0.04 nM

Clc1ncccc1OC[C@@H]1CCN1 [Example 121, 2-Chloro-3-(2-(S)-azetidinylmethoxy)pyridine hydrochloride]
Ki [1, 3]: 2.3 nM

CCc1cc(OC[C@@H]2CCN2)cnc1C [Example 36, 6-Ethyl-6-methyl-3-((2S)-azetidinylmethoxy)pyridine hydrochloride]
Ki [1, 3]: 0.04 nM | MED Hot plate model (μmol/kg, i.p.) (mice): NS

Cc1ccc(OC[C@H]2CCN2)c(F)n1 [Example 118, 2-Fluoro-6-methyl-3-(2-(R)-azetidinylmethoxy)pyridine tosylate]
Ki [1, 3]: 4.8 nM

N#Cc1ccc(OC[C@@H]2CCN2)cn1 [Example 123, 6-Cyano-3-(2(S)-azetidinylmethoxy)pyridine hydrochloride]
Ki [1, 3]: 1.9 nM

CCCCc1cc(OC[C@@H]2CCN2)cnc1Cl [Example 29, 3-Butyl-2-chloro-5-((2S)-azetidinylmethoxy)pyridine hydrochloride]
Ki [1, 3]: 0.16 nM | MED Hot plate model (μmol/kg, i.p.) (mice): NS

O=C(c1ccc(F)cc1)N1CC[C@@H]1COc1ccc(F)nc1 [Example 4-FC6H4CO]
F* (%) efficiency of conversion [2]: 13.5% | AUD0. [2]: 9.35 ng·h/mL | Cmax [2]: 3.25 ng/mL | Tmax [2]: 0.8 h | t½ [2]: 1.6 h

CCc1cc(OC[C@@H]2CCN2)cnc1F [Example 126, 5-ethyl-6-fluoro-3-(2-(S)-azetidinylmethoxy)pyridine]
Ki [1, 3]: 0.07 nM

c1cncc(OC[C@@H]2CCN2)c1 [Example 7, (S)-3-(2-Azetidinylmethyloxy)pyridine dihydrochloride]
Ki [1]: 0.04 nM | minimal effective dose (mice): 6.2 µmol/kg

Cc1cc(OC[C@@H]2CCN2)cnc1Cl [Example 25, 2-Chloro-3-methyl-5-(2-(S)-azetidinylmethoxy)pyridine citrate]
Ki [1, 3]: 0.05 nM | minimal effective dose (mice): 0.062 µmol/kg

Brc1ccc(OC[C@H]2CCN2)cn1 [Example 128, 5-(2-(R)-azetidinylmethoxy)-2-bromo-pyridine tosylate]
Ki [1, 3]: 0.17 nM

Brc1cncc(OC[C@@H]2CCN2)c1 [Example 12, 5-((2S)-Azetidinylmethyloxy)-3-bromopyridine dihydrochloride]
Ki [1, 3]: 0.26 nM | MED Hot plate model (μmol/kg, i.p.) (mice): NS

C=Cc1cc(OC[C@@H]2CCN2)cnc1F [Example 131, 5-(2-(S)-Azetidinylmethoxy)-3-ethenyl-2-fluoropyridine tosylate]
Ki [1, 3]: 0.13 nM

CCc1cc(OC[C@@H]2CCN2)cnc1Cl [Example 27, 2-Chloro-3-ethyl-5-((2S)-azetidinylmethoxy)pyridine hydrochloride]
Ki [1, 3]: 0.04 nM | MED Hot plate model (μmol/kg, i.p.) (mice): NS

COc1ccc(C(=O)N2CC[C@@H]2COc2ccc(F)nc2)cc1 [Example 4-MeOC6H4CO]
F* (%) efficiency of conversion [2]: 37.7% | AUD0. [2]: 26.09 ng·h/mL | Cmax [2]: 7.43 ng/mL | Tmax [2]: 0.8 h | t½ [2]: 2.0 h

O=C(c1ccc([N+](=O)[O-])cc1)N1CC[C@@H]1COc1ccc(F)nc1 [Example 4-NO2C6H4CO]
F* (%) efficiency of conversion [2]: 27.1% | AUD0. [2]: 18.76 ng·h/mL | Cmax [2]: 6.01 ng/mL | Tmax [2]: 0.8 h | t½ [2]: 1.9 h

Clc1ncccc1OC[C@H]1CCN1 [Example 97, 2-Chloro-3-(2-(R)-azetidinylmethoxy)pyridine tosylate]
Ki [1, 3]: 85 nM

O=C(c1ccc(Cl)cc1)N1CC[C@@H]1COc1ccc(F)nc1 [Example 4-ClC6H4CO]
F* (%) efficiency of conversion [2]: 26.9% | AUD0. [2]: 18.61 ng·h/mL | Cmax [2]: 4.54 ng/mL | Tmax [2]: 0.8 h | t½ [2]: 2.5 h

Cc1cc(OC[C@H]2CCN2)cnc1Cl [Example 127, 2-Chloro-3-methyl-5-(2-(R)--azetidinylmethoxy)pyridine citrate]
Ki [1]: 0.06 nM

Cc1ccc(OC[C@@H]2CCN2)c(F)n1 [Example 117, 2-Fluoro-6-methyl-3-(2-(S)-azetidinylmethoxy)pyridine tosylate]
Ki [1, 3]: 0.17 nM

Cc1ccc(C(=O)N2CC[C@@H]2COc2ccc(F)nc2)cc1 [Example 4-MeC6H4CO]
F* (%) efficiency of conversion [2]: 43.1% | AUD0. [2]: 29.85 ng·h/mL | Cmax [2]: 7.05 ng/mL | Tmax [2]: 0.8 h | t½ [2]: 2.4 h

Fc1ncc(OC[C@H]2CCN2)cc1Br [Example 125, 5-bromo-6-fluoro-3-(2-(R)-azetidinylmethoxy)pyridine]
Ki [1]: 0.04 nM

COC(=O)c1ccc(C(=O)N2CC[C@@H]2COc2ccc(F)nc2)cc1 [4-MeO2CC6H4CO]
F* (%) efficiency of conversion [2]: 61.2% | AUD0. [2]: 42.37 ng·h/mL | Cmax [2]: 10.31 ng/mL | Tmax [2]: 0.8 h | t½ [2]: 1.8 h

O=C(c1ccccc1)N1CC[C@@H]1COc1ccc(F)nc1 [PhCO]
F* (%) efficiency of conversion [2]: 27.3% | AUD0. [2]: 18.89 ng·h/mL | Cmax [2]: 6.31 ng/mL | Tmax [2]: 0.6 h | t½ [2]: 1.8 h

Fc1ccc(OC[C@@H]2CCN2)c(F)n1 [Example 116, 2.6-Difluoro-3-(2-(S)-azetidinylmethoxy)pyridine tosylate]
Ki [1, 3]: 0.34 nM

Clc1cncc(OC[C@H]2CCN2)c1 [Example 114, 3-(2-(R)-Azetidinylmethoxy)-5-chloropyridine tosylate]
Ki [1, 3]: 0.12 nM
